According to PubChem BioAssay (NCI):
Values joined by “and” are separate entries in the source; they are usually repeats but may differ in a detail not shown here. Equal entries are not always repeated.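 Grown in 96-well plates, cells were treated for 48 hours with each compound at five concentrations. Insufficient inhibition: endpoint recorded as highest concentration tested. GI50 marks 50% less growth. TGI denotes the concentration required for complete inhibition of growth.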

Legend:
Assay in all cases: NCI tumour cell line growth inhibition, 48 h
[1] = tested on: OVCAR-5 ovarian
[2] = tested on: NCI-H522 lung
[3] = tested on: SK-OV-3 ovarian
[4] = tested on: MALME-3M melanoma
[5] = tested on: NCI-H460 lung
[6] = tested on: HOP-62 NSCLC
[7] = tested on: SNB-19 CNS
[8] = tested on: K-562 leukemia
[9] = tested on: MOLT-4 leukemia
[10] = tested on: MCF7 breast
[11] = tested on: EKVX NSCLC

Row | Compound | TGI [1] [µM] | TGI [2] | TGI [3] [µM] | TGI [4] | TGI [5] | TGI [6] | TGI [7] | TGI [8] [µM] | TGI [9] | TGI [10] | TGI [11] [µM] | GI50 [3]
1 | C=CCN1CCC2(CC1)NC(=O)c1ccccc1O2 | > 100 | > 100 µM | > 100 | > 100 µM | > 100 µM | > 100 µM | > 100 µM | > 100 | > 100 µM | > 100 µM | > 100 | 
2 | CN(CCO)/N=N/c1[nH]ncc1C(N)=O | > 100 | > 100 µM | > 100 | > 100 µM | > 100 µM |  | > 100 µM | > 100 | > 100 µM | > 100 µM | > 100 | 
3 | CCOC(=O)CC[C@H](N)C(=O)N[C@H](Cc1ccc(N(CCCl)CCCl)cc1)C(=O)OCC | 14.7 | 6.76 µM | 11.7 | 13.9 µM | 16.2 µM | 13.6 µM | 99 µM | > 100 | 31.5 µM | > 47.5 µM | 19.1 | 
4 | O=P1(c2ccccc2)C2=CCC=CC2C(c2ccccc2)N1Cc1ccccc1 (stereo not given) | > 100 | 24.6 µM | 31 | 32.9 µM | 28.1 µM | 37.6 µM | 41.2 µM | 35.5 | 38.7 µM | 25.6 µM | 28.7 | 
5 | C=CC1(c2ccc(OC)cc2)OCCCO1 | > 100 | > 100 µM | > 100 | > 100 µM | > 100 µM | > 100 µM | > 100 µM | > 100 | > 100 µM | > 100 µM | 34.6 | 
6 | CN1C(=O)N(C)C2(CCN(CCCCCCF)CC2)C1=O | > 100 | > 100 µM | > 100 | > 100 µM |  | > 100 µM | > 100 µM | > 100 |  | > 100 µM | > 100 | 
7 | COC(=O)[C@H](CCSC)NC(=O)c1ccc(CNC(=O)/C(C)=C/c2ccccc2)cc1 | > 100 | 32.5 µM | > 100 | 29.5 µM | > 100 µM | 52.3 µM | 58.2 µM | > 100 | > 100 µM | > 100 µM | > 100 | 
8 | COC(=O)C(Cc1nc2ccccc2[nH]c1=O)C(=O)C(=O)Nc1cc(C(F)(F)F)ccc1Cl (stereo not given) | 33.5 | 19 µM | > 100 | 31.4 µM | 39.9 µM | 35.1 µM |  | > 100 | 48.2 µM | 27.4 µM | 39 | 
9 | COc1ccccc1NCC(=O)Nn1c(C)nc2ccc(S(=O)(=O)Nc3ccccc3OC)cc2c1=O | > 100 | > 100 µM | > 100 | > 100 µM | > 100 µM | > 100 µM | > 100 µM | > 100 | > 100 µM | > 100 µM | > 100 | 
10 | CCCCCCCCCCCCCCCCP(=O)([O-])OCC[N+](C)(C)C | 21.8 | 42.6 µM | 24.6 | 36.6 µM | 18.8 µM | 31 µM | > 57.4 µM | 35.7 | 33.4 µM | 35.3 µM | 39.1 | 
11 | CN(C)CCNc1nc2c(no[n+]2[O-])c2ccccc12 | > 100 | 65.4 µM | 98.8 | 37.1 µM | > 100 µM | 34.9 µM | 79 µM | 87.7 | 95.8 µM | > 100 µM | 73.9 | 
12 | CC(=O)O[C@H]1CC[C@H]2[C@@H]3CCC(C(C)=O)[C@H](C(=O)O)[C@H]3CC[C@]12C (stereo not given in full) | > 100 | > 100 µM | > 100 | > 100 µM | > 100 µM | > 100 µM | > 100 µM | > 100 | > 100 µM | > 100 µM | > 100 | 
13 | CCCCCCCCCCSCC(CO)NC(=O)/C=C/c1c(C)[nH]c(=O)[nH]c1=O (stereo not given) | > 50 | 1.68 µM and 6.76 µM | > 50 | 6.28 µM and 2.78 µM | 18.2 µM and 49.5 µM | > 31.1 µM and 31.2 µM | 13.7 µM and 12.4 µM | > 50 | 16.8 µM and 9.45 µM | > 19.3 µM and 17.4 µM | > 42.3 | 1.82 µM and 7.04 µM
14 | C/C=C1\CC(C(=O)OCC)CCCCCCCCCCC1=O (stereo not given) | > 100 | 81.5 µM | > 100 | > 100 µM | > 100 µM | > 100 µM | > 100 µM |  | > 100 µM | > 100 µM | > 100 | 
15 | CC(=O)N(CN1C(=O)CCC1C(=O)O)c1ccccc1Cl (stereo not given) | > 100 | > 100 µM | > 100 | > 100 µM | > 100 µM | > 100 µM | > 100 µM | > 100 | > 100 µM | > 100 µM | > 100 | 
16 | COc1ccc(C[C@@H]2OC3(C=CC(=O)C=C3)O[C@H]2Cc2ccc(OC)cc2)cc1 | 2.05 | 0.33 µM | 13.5 | 4.22 µM | 25.1 µM | 3.59 µM | 5.01 µM | > 100 | 2.01 µM | 5.68 µM | 3.7 | 
17 | CC(/C=N/NC1=NCCCN1)=N\NC1=NCCCN1 | > 100 | > 100 µM | > 100 | > 100 µM | > 100 µM | > 100 µM | > 100 µM | > 100 | > 100 µM | > 100 µM | > 100 | 
18 | COc1cccc(-c2cc(=O)c3cc(Cl)cnc3[nH]2)c1 | > 100 | 3.51 µM | 74.8 | > 100 µM | > 100 µM | 9.84 µM | > 77.2 µM | > 100 | 28.3 µM | > 78.8 µM | > 100 | 
19 | COc1cc2c(cc1OCCCCCOc1cc3c(cc1OC)C(=O)N1CCC[C@H]1CN3)N=C[C@@H]1CCCN1C2=O | 69.4 | 3.65 µM | > 100 | 21.6 µM | > 100 µM | 31.5 µM | > 100 µM | 17.6 | 9.24 µM | > 100 µM | > 100 | 
20 | Cc1sc2nc3n(c(=O)c2c1C)N=C(c1ccc([N+](=O)[O-])cc1)CS3 | > 100 | > 100 µM | > 100 | > 100 µM | > 100 µM | > 100 µM |  | > 100 | > 100 µM | > 100 µM | > 100 | 
